Test results taken from ChEMBL document CHEMBL1124870, “2-(4-Amino-4-carboxybutyl)aziridine-2-carboxylic acid. A potent irreversible inhibitor of diaminopimelic acid epimerase. Spontaneous formation from alpha-(halomethyl)diaminopimelic acids” (J Med Chem, 1990).
pKd: −log10 of the molar value.

Experiments:
Escherichia coli = assay: Concentration at which first-order inactivation was observed by the inhibition of Diaminopimelate epimerase
[1] = Dissociation constant value of the compound; format: physicochemical; settings: read-out: Ki/ki
[2] = Rate of formation of aziridine under physiological conditions; format: ADME

Structure (SMILES) | Concentration (Escherichia coli) [µM] | pKd [1] | k0 [2] [min⁻¹] | kik0/Ki [2]
NC(CCCC1(C(=O)O)CN1)C(=O)O (stereo unspecified) | 2 | 5.26 |  | 
NC(CCCC(N)(CCl)C(=O)O)C(=O)O (stereo unspecified) |  |  | 0.011 | 0.002 µM-1 min··-2
NC(CCCC(N)(CF)C(=O)O)C(=O)O (stereo unspecified) |  |  | 0.000079 | 0.0000145 uM-1 min**-2
